Assays:
[1] = Stability against forced oxidation at 120° C. in an oily food matrix (refined oil, Rancimat)
Protocol: This was done by measuring the remaining amount of each of the compounds when these were subjected to forced oxidation at 120° C. Oxidation was done by passing a dry air current (˜20 I/h) through an aliquot of the sample (4 ml) placed in a reactor heated to 120° C. using a Metrohm-Herisau A. G Rancimat apparatus.
The solutions of all the compounds were prepared in refined oil. A total of 5 mg of II were dissolved in 5 g of refined oil, and finally 0.5 g of this solution were dissolved in. 5 g of refined oil. Similarly, solutions III and VIII were prepared in refined oil. Aliquots of 0.3 ml were collected at different times for each solution and were stored at −20° C. […] After introducing the sample, 6 ml of hexane, 6 ml of hexane/ethyl acetate (9:1) and 10 ml of methanol were passed through it, and then the methanolic fraction was concentrated to 1 ml volume. […] Once again, the methanolic phase was concentrated to 1 ml volume for analysis.

[2] = Absorption of hydroxytyrosol administered orally in human volunteers; format: in vivo; conditions: oral
Protocol: Pure hydroxytyrosol was obtained from olive leaves using standard extraction procedures compatible with the consumption of food products.
A 2.5 mg dose of hydroxytyrosol was administered per kg weight to 5 fasting healthy volunteers aged from 22–30 years who had not taken olive oil in their diet for at least two days before the study. Hydroxytyrosol dissolved in water was administered orally and afterwards blood samples were obtained at 0, 10, 20, 30, 60, 120 minutes. The plasma level of hydroxytyrosol and derived metabolites were determined by gas chromatography-mass spectometry using anthracene and napthol as internal standards.

[3] = Absorption of hydroxytyrosol and derivatives administered orally in mice (hydroxytyrosol in plasma); conditions: oral, oily solution, equivalent amounts (10 mg II, 13 mg III, 70 mg IX)
Text: Plasma was isolated from each blood sample by extraction with ethyl acetate and analysed by gas chromatography-mass spectometry.

| remaining amount of compound during forced oxidation ([1]; 120° C., dry air current, after 10 hours, RP-HPLC) | time bioavailable after administration [2] | time of return of hydroxytyrosol plasma level to values similar to initial ones ([2]; 2.5 mg per kg weight in water) | time of maximum plasma level of hydroxytyrosol after administration ([2]; 2.5 mg per kg weight in water, fasting) | SMILES | degradation state during forced oxidation ([1]; 120° C., after 10 hours) | Hydroxytyrosol in plasma, 15 min. ([3]; 15 min) | Hydroxytyrosol in plasma, 60 min. ([3]; 60 min) | stability against oxidation compared with hydroxytyrosol ([1]; forced oxidation at 120° C.) |
| --- | --- | --- | --- | --- | --- | --- | --- | --- |
| 50% |  |  |  | CCCCCCCCCCCCCCCCCCOc1ccc(CCO)cc1O [Compound VII, 2-(4-stearyloxy-3-hydroxyphenyl) ethanol] |  |  |  |  |
|  | at least 30 minutes | 30 min | 10 min | OCCc1ccc(O)c(O)c1 [II, 2-(3,4-dihydroxyphenyl) ethanol] | completely degraded |  |  |  |
|  |  |  |  | CC(=O)OCCc1ccc(O)c(O)c1 [III, 2-(3,4-dihydroxyphenyl) ethyl acetate] | completely degraded | 0.68 mg/L | 0.06 mg/L | takes longer to degrade than hydroxytyrosol (II) |

Source: patent US7098246B2, “Natural compounds and their derivatives for the prevention and treatment of cardiovascular, hepatic and renal diseases and for cosmetic applications” (Puleva Biotech, S.A., priority 2002, dated 2006)
